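Where inhibition never reached the appropriate level, the endpoint shown equals the highest concentration tested. Otherwise, values were interpolated linearly from a five-concentration, 48-hour dose response in 96-well plates. At the GI50, growth is halved.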 Calls of active or inactive are those of the source. Cut-off read from the data, not from the text of the source: active = GI50 up to about 1.1 µM and inactive = higher.
Columns and labels:
Test in all cases: NCI anticancer screen, dose series, 48 h
TK-10 = test system: TK-10
HCT-15 = test system: HCT-15
BT-549 = test system: BT-549
COLO 205 = test system: COLO 205
SN12C = test system: SN12C
KM12 = test system: KM12
NCI-H226 = test system: NCI-H226
SK-MEL-28 = test system: SK-MEL-28
UACC-257 = test system: UACC-257
RXF 393 = test system: RXF 393
CAKI-1 = test system: CAKI-1
EKVX = test system: EKVX
RPMI-8226 = test system: RPMI-8226
SK-MEL-5 = test system: SK-MEL-5
HOP-62 = test system: HOP-62
SF-268 = test system: SF-268
K562 = test system: K562
MDA-MB-231 = test system: MDA-MB-231
NCI-H522 = test system: NCI-H522
M14 = test system: M14

Row | Compound | GI50 (TK-10) | GI50 (HCT-15) | GI50 (BT-549) | GI50 (COLO 205) | GI50 (SN12C) | GI50 (KM12) | GI50 (NCI-H226) | GI50 (SK-MEL-28) | GI50 (UACC-257) | GI50 (RXF 393) | GI50 (CAKI-1) | GI50 (EKVX) | GI50 (RPMI-8226) | GI50 (SK-MEL-5) | GI50 (HOP-62) | GI50 (SF-268) | GI50 (K562) | GI50 (MDA-MB-231) | GI50 (NCI-H522) | GI50 (M14)
1 | CC1(c2ccc(Cl)cc2)c2ccccc2C(=O)N1CCCN1C(=O)c2ccccc2C1=O (stereo not given) | > 100 µM (inactive) | 34 µM | > 100 µM (inactive) | 18.5 µM (inactive) | > 100 µM (inactive) | 20.9 µM (inactive) | 22.7 µM (inactive) | 69.5 µM (inactive) | 51.8 µM (inactive) | 29.4 µM (inactive) | 86.3 µM (inactive) | 3.36 µM (inactive) | 33.3 µM (inactive) | 16.4 µM (inactive) | 49.7 µM (inactive) | 40.6 µM (inactive) | 50.5 µM (inactive) | > 100 µM (inactive) |  | 
2 | O=[N+]([O-])c1ccc(NS(=O)(=O)C(F)(F)F)cc1 | > 100 µM (inactive) | > 100 µM | > 100 µM (inactive) | > 100 µM (inactive) | > 100 µM (inactive) | > 100 µM (inactive) | > 100 µM (inactive) | > 100 µM (inactive) | > 100 µM (inactive) | > 100 µM (inactive) | > 100 µM (inactive) | > 100 µM (inactive) |  | > 100 µM (inactive) | > 100 µM (inactive) | > 100 µM (inactive) |  | > 100 µM (inactive) | 22.1 µM (inactive) | > 100 µM (inactive)
3 | CSc1ncc2c(n1)-c1ccccc1OC2 | 45.1 µM (inactive) | 51.2 µM | 43 µM (inactive) | 92.3 µM (inactive) | 39.7 µM (inactive) | > 100 µM (inactive) | 67 µM (inactive) |  | > 100 µM (inactive) | 41.5 µM (inactive) | 19.4 µM (inactive) | 34.3 µM (inactive) | > 100 µM (inactive) | 53.1 µM (inactive) |  | 49.4 µM (inactive) |  | 16.7 µM (inactive) | 44.5 µM (inactive) | 45.4 µM (inactive)
4 | CC1(C)C(C#N)C1C1=C(N2CCOCC2)[C@]2(C)C(OC(=O)c3ccccc3)CC[C@@H]2C1 (stereo not given in full) | > 100 µM (inactive) | > 100 µM | 55.1 µM (inactive) | 95.3 µM (inactive) | > 100 µM (inactive) | > 100 µM (inactive) | > 100 µM (inactive) | > 100 µM (inactive) | > 100 µM (inactive) | 35.6 µM (inactive) | > 100 µM (inactive) | > 100 µM (inactive) |  | 29.8 µM (inactive) | > 100 µM (inactive) | > 100 µM (inactive) | 38.5 µM (inactive) | > 100 µM (inactive) | > 100 µM (inactive) | > 100 µM (inactive)
5 | Cc1ccc(S(=O)(=O)NC(=O)C2=C(c3ccccc3)[N-]N(C)c3nc4cccc[n+]4nc32)cc1 | > 100 µM (inactive) | > 100 µM | > 100 µM (inactive) | 23.1 µM (inactive) | > 100 µM (inactive) | > 100 µM (inactive) | > 100 µM (inactive) | > 100 µM (inactive) | 66.4 µM (inactive) | > 100 µM (inactive) | > 100 µM (inactive) | 29.1 µM (inactive) | 45.6 µM (inactive) | 98.9 µM (inactive) |  | > 100 µM (inactive) | > 100 µM (inactive) | 50.9 µM (inactive) | 34.4 µM (inactive) | > 100 µM (inactive)
6 | [N-]=[N+]=NC1(c2ccccc2)C(=O)c2cccc3c4ccccc4n(c23)C1=O (stereo not given) | > 100 µM (inactive) | > 100 µM | > 100 µM (inactive) | 6.5 µM (inactive) | > 100 µM (inactive) | 53.1 µM (inactive) | > 100 µM (inactive) | > 100 µM (inactive) | > 100 µM (inactive) | > 100 µM (inactive) | > 100 µM (inactive) | 92.3 µM (inactive) | 45.3 µM (inactive) | > 100 µM (inactive) | > 100 µM (inactive) | > 100 µM (inactive) |  | > 100 µM (inactive) | 45.6 µM (inactive) | > 100 µM (inactive)
7 | C=CC(C)(C)c1cc([C@@H]2COc3cc(O)ccc3C2=O)c(O)c(O)c1OC | > 100 µM (inactive) | 16.5 µM | 18 µM (inactive) | 26.7 µM (inactive) | 17.6 µM (inactive) | 19.8 µM (inactive) | 39.3 µM (inactive) | 27.8 µM (inactive) | 61.7 µM (inactive) | 4.85 µM (inactive) | 13.2 µM (inactive) | 28.6 µM (inactive) |  | 19.7 µM (inactive) |  | 18.2 µM (inactive) | 34.8 µM (inactive) | 25.2 µM (inactive) | 17 µM (inactive) | 22.3 µM (inactive)
8 | COC(=O)C1=C(C(=O)OC)SC2(S1)C(C(=O)OC)=C(C(=O)OC)Sc1c2ss/c1=N/C(C)(C)C | 1.64 µM (inactive) | 0.622 µM | 2.07 µM (inactive) | 1.45 µM (inactive) | 1.22 µM (inactive) | 1.57 µM (inactive) | 3.18 µM (inactive) | 2.07 µM (inactive) | 1.47 µM (inactive) | 0.541 µM (active) | 1.53 µM (inactive) | 1.49 µM (inactive) |  | 1.91 µM (inactive) | 3.72 µM (inactive) | 1.86 µM (inactive) | 2.21 µM (inactive) | 1.64 µM (inactive) | 0.555 µM (active) | 1.66 µM (inactive)
9 | O=C(OCC(Cl)(Cl)Cl)O[C@@H]1CCCC1(c1ccccc1)c1ccccc1 | > 100 µM (inactive) | 77.4 µM | > 100 µM (inactive) | > 100 µM (inactive) | > 100 µM (inactive) | 45.3 µM (inactive) | 37.5 µM (inactive) | 78.7 µM (inactive) | 67.8 µM (inactive) | 63.2 µM (inactive) | > 100 µM (inactive) | > 100 µM (inactive) |  | 35.9 µM (inactive) | > 100 µM (inactive) | > 100 µM (inactive) | 30.8 µM (inactive) | > 100 µM (inactive) | 38.7 µM (inactive) | > 100 µM (inactive)
10 | C=C1c2nc3ccccc3n2C=C(c2ccc(OC)cc2)N1c1ccc(OC)cc1 | 10.8 µM (inactive) | 25.5 µM | 22.1 µM (inactive) | 83.4 µM (inactive) | 17.8 µM (inactive) | 14.6 µM (inactive) | 18.7 µM (inactive) |  | 34 µM (inactive) | 9.98 µM (inactive) | 4.62 µM (inactive) | 25.5 µM (inactive) | 29.4 µM (inactive) | 7.45 µM (inactive) |  |  | > 100 µM (inactive) | 20 µM (inactive) | 10.7 µM (inactive) | 39.8 µM (inactive)
11 | Cc1nc(OCc2ccccc2)c2ncn(CCO)c2n1 | > 100 µM (inactive) |  | > 100 µM (inactive) | > 100 µM (inactive) | > 100 µM (inactive) | > 100 µM (inactive) | > 100 µM (inactive) | > 100 µM (inactive) | > 100 µM (inactive) | > 100 µM (inactive) | > 100 µM (inactive) |  | > 100 µM (inactive) | > 100 µM (inactive) |  | > 100 µM (inactive) |  | > 100 µM (inactive) | > 100 µM (inactive) | > 100 µM (inactive)
12 | CC(=O)OC1/C(=C/c2ccc([N+](=O)[O-])cc2)C[C@H]2[C@@H]3CC=C4C[C@@H](OC(C)=O)CC[C@]4(C)[C@H]3CC[C@]12C (stereo not given in full) | 29.6 µM (inactive) | > 100 µM | > 100 µM (inactive) | > 54.6 µM (inactive) | > 100 µM (inactive) | > 100 µM (inactive) | 4.63 µM (inactive) | > 100 µM (inactive) | > 100 µM (inactive) | 20 µM (inactive) | > 48.9 µM (inactive) | > 85.7 µM (inactive) | > 71.3 µM (inactive) | > 100 µM (inactive) | 34.7 µM (inactive) | 51.4 µM (inactive) |  | 58.3 µM (inactive) | > 91.8 µM (inactive) | > 100 µM (inactive)
13 | COc1cc(-c2nc3cc(F)ccc3s2)ccc1O | 33.7 µM (inactive) | 11.7 µM | 20.6 µM (inactive) | 16.4 µM (inactive) | 85.1 µM (inactive) | 18.6 µM (inactive) | 26.4 µM (inactive) | 33.8 µM (inactive) | 19 µM (inactive) | > 100 µM (inactive) | 28.2 µM (inactive) | 5.73 µM (inactive) | 41.1 µM (inactive) | 12.1 µM (inactive) |  | 41.4 µM (inactive) | 82.8 µM (inactive) | 34.2 µM (inactive) | 19.5 µM (inactive) | 58.3 µM (inactive)
14 | Nc1ccc(-c2nc3cc(F)ccc3s2)cc1 | 30.5 µM (inactive) | 17.6 µM | > 100 µM (inactive) | 61 µM (inactive) | > 100 µM (inactive) | > 68.4 µM (inactive) |  | > 100 µM (inactive) | > 43.4 µM (inactive) | 32.3 µM (inactive) | 27.7 µM (inactive) | 2 µM (inactive) | > 100 µM (inactive) | 61.4 µM (inactive) | 18.3 µM (inactive) | 31 µM (inactive) | > 100 µM (inactive) | 22.5 µM (inactive) | 53.5 µM (inactive) | 71.6 µM (inactive)
15 | CSCC[C@H]1C(=O)N=C(N)N1C(=O)OCc1ccccc1 | 37.9 µM (inactive) | 28.6 µM | 19.8 µM (inactive) | 18.7 µM (inactive) | 31 µM (inactive) | 42.9 µM (inactive) | 30 µM (inactive) | 24.2 µM (inactive) | 40.6 µM (inactive) | 17.3 µM (inactive) | 20 µM (inactive) | 53.6 µM (inactive) | 60 µM (inactive) | 46.8 µM (inactive) | > 100 µM (inactive) | 38.4 µM (inactive) | 21.8 µM (inactive) | 66.5 µM (inactive) | 19.7 µM (inactive) | 

— ChEMBL document CHEMBL1201862, “PubChem BioAssay data set” (2004)
